melting point [°C] | SMILES
113 to 114 | CC(C)Cn1c(=O)n(C)c(=O)c2c(-c3ccsc3)c(Cc3ccccc3C(F)(F)F)sc21 [Example 6, 3-Methyl-1-(2-methylpropyl)-5-(3-thienyl)-6-[[2-(trifluoromethyl)phenyl]methyl]-thieno[2,3-d]pyrimidine-2,4(1H,3H)-dione]
165 to 167 | CC(C)Cn1c(=O)n(C)c(=O)c2c(CCC(=O)O)c(Cc3ccccc3C(F)(F)F)sc21 [Example 28, 1,2,3,4-Tetrahydro-3-methyl-1-(2-methylpropyl)-2,4-dioxo-6-[[2-(trifluoromethyl)phenyl]methyl]-thieno[2,3-d]pyrimidine-5-propanoic acid]

— patent US6890923B2, “Compounds” (AstraZeneca AB, priority 2002, dated 2005)
